Measured values taken from PubChem BioAssay (NCI).
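Test compounds were applied to cells in 96-well plates for 48 hours at 5 doses. Here, GI50 denotes the concentration required for 50% inhibition of growth. TGI is the concentration that stops growth completely.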

Experiments:
Test in all cases: NCI anticancer screen, dose series, 48 h
SN12C renal = system: SN12C renal
SNB-75 CNS = system: SNB-75 CNS
COLO 205 colon = system: COLO 205 colon
A549 NSCLC = system: A549 NSCLC
HCT-116 colon = system: HCT-116 colon
UACC-257 melanoma = system: UACC-257 melanoma
SK-MEL-2 melanoma = system: SK-MEL-2 melanoma
HOP-62 NSCLC = system: HOP-62 NSCLC
HCC-2998 colon = system: HCC-2998 colon
LOX IMVI melanoma = system: LOX IMVI melanoma

SMILES	GI50 (SN12C renal)	TGI (SN12C renal)	GI50 (SNB-75 CNS)	TGI (SNB-75 CNS)	GI50 (COLO 205 colon)	TGI (COLO 205 colon)	GI50 (A549 NSCLC)	TGI (A549 NSCLC)	GI50 (HCT-116 colon)	TGI (HCT-116 colon)	GI50 (UACC-257 melanoma)	TGI (UACC-257 melanoma)	GI50 (SK-MEL-2 melanoma)	TGI (SK-MEL-2 melanoma)	GI50 (HOP-62 NSCLC)	TGI (HOP-62 NSCLC)	GI50 (HCC-2998 colon)	TGI (HCC-2998 colon)	GI50 (LOX IMVI melanoma)	TGI (LOX IMVI melanoma)
Cc1cc(-c2ccco2)cc(C)c1/C=C/c1cncc(-c2nn[nH]n2)c1	> 25 µM	> 25 µM	> 25 µM	> 25 µM	> 25 µM	> 25 µM	> 25 µM	> 25 µM	> 25 µM	> 25 µM	> 25 µM	> 25 µM	> 25 µM	> 25 µM	> 25 µM	> 25 µM	> 25 µM	> 25 µM	> 25 µM	> 25 µM
CCN(CC)C(=O)CCCCCn1c2ccccc2c2c3c(c4c5ccccc5[nH]c4c21)C(=O)N(O)C3=O	4.03 µM	> 100 µM	7.71 µM	> 100 µM	1.97 µM	4.23 µM	21.8 µM	98.4 µM	3.75 µM	28.1 µM	10.7 µM	55.1 µM	3.38 µM	12.1 µM	11.6 µM	47.8 µM	4.72 µM	27.1 µM	1.13 µM	2.88 µM
Oc1ccc(-c2[nH]c3ccccc3c2-c2nc3ccccc3o2)cc1	4.88 µM	18.5 µM	1.44 µM	10.4 µM	3.54 µM	12.6 µM	3.15 µM	11.4 µM	3.15 µM	13 µM	4.59 µM	18.3 µM	3.03 µM	12.3 µM	5.01 µM	18.2 µM	2.66 µM	7 µM	1.9 µM	5.72 µM
O=S(=O)(Cc1ccccc1)SCc1ccccc1		58 µM		> 100 µM		34.3 µM		> 100 µM		35.4 µM		76 µM		> 70.9 µM		> 100 µM		55.2 µM		30.9 µM
NCC(Cc1ccccc1)P(=O)(O)O (stereo not drawn)		> 100 µM		> 100 µM		> 100 µM		> 100 µM		> 100 µM		> 100 µM		> 100 µM		> 100 µM		> 100 µM		> 100 µM
Cc1ccccc1CNc1c2ccccc2nc2ccccc12	2.47 µM	8.97 µM	1.7 µM	8.36 µM	1.6 µM	3.5 µM	2.09 µM	5.22 µM	1.11 µM	8.31 µM	2.2 µM	5.23 µM	2.01 µM	4.19 µM	3.02 µM	14.6 µM	1.73 µM	3.65 µM	1.49 µM	2.93 µM
NNC(=O)N/N=C1\CNC(=O)C(=O)C1c1nc2ccccc2s1 (stereo not drawn)		> 100 µM		> 100 µM		> 100 µM		> 100 µM		> 100 µM		> 100 µM		> 100 µM		> 100 µM		> 100 µM		> 100 µM
COc1cc2c(cc1OC)C(SC)C(=O)N(Cc1cccc(OC)c1OC)CC2 (stereo not drawn)		> 100 µM		> 100 µM		16.9 µM		> 82.7 µM		> 70.2 µM		32.2 µM		19.1 µM		> 45.8 µM		29.1 µM		> 83.3 µM
c1ccc2c(c1)[O][Sn][O]2	41.8 µg/mL	> 150 µg/mL	100 µg/mL	> 150 µg/mL	> 150 µg/mL	> 150 µg/mL	11 µg/mL	> 150 µg/mL	19.8 µg/mL	> 150 µg/mL	> 150 µg/mL	> 150 µg/mL	92.6 µg/mL	> 150 µg/mL	36.1 µg/mL	> 150 µg/mL	81.5 µg/mL	> 150 µg/mL	27.8 µg/mL	112 µg/mL
CC(C)=CC(=O)CC(=O)C(=O)NCCNC(=O)C(=O)CC(=O)C=C(C)C		> 50 µM		> 50 µM		> 50 µM		> 50 µM		> 50 µM		> 50 µM		> 50 µM		> 50 µM		> 50 µM		> 50 µM
CCN(CCNc1ccc(C)c2sc3cc(Cl)ccc3c(=O)c12)CC(C)(C)O	20.8 µM	> 100 µM	3.31 µM	16.8 µM	1.89 µM	3.94 µM	5.2 µM	19.5 µM	4.94 µM	18.2 µM	2.03 µM	4.37 µM	3.28 µM	14.2 µM	3.87 µM	16.1 µM	2.02 µM	4.08 µM	3.07 µM	10.3 µM
Cc1ccc(-c2nc(C(Cl)Cl)nc3cc(C)nn23)cc1	5.88 µM	> 100 µM	1.48 µM	8.39 µM	1.04 µM	3.41 µM	1.33 µM	6.21 µM	2.09 µM	> 100 µM	3.26 µM	> 100 µM	> 100 µM	> 100 µM	1.31 µM	8.58 µM	1.18 µM	2.59 µM	4.01 µM	> 100 µM
O=C(Nc1nc2c(s1)CCc1c-2c(Br)n(Cc2ccccc2)c1Br)c1ccccc1	10 µM	> 100 µM	1.77 µM	4.74 µM	8.05 µM	> 100 µM	3.12 µM	23.1 µM	3.98 µM	> 100 µM	8.53 µM	> 100 µM	3.47 µM	19.6 µM	2.13 µM	6.72 µM	> 100 µM	> 100 µM	5.53 µM	> 100 µM
CCN(CC)CCS(=O)(=O)CCNc1ccnc2cc(Cl)ccc12	3.25 µM	> 100 µM	2.07 µM	> 29 µM	2.66 µM	8.31 µM	4.12 µM	> 61.7 µM	0.834 µM	4.63 µM	5.13 µM	26.1 µM	2.35 µM	14.1 µM	4.99 µM	> 100 µM	8.81 µM	> 23.8 µM	0.982 µM	5.85 µM
COC(=O)c1ccc2c(c1)C(=O)c1c-2n(CCCCl)c(=O)c2cc(OC)c(OC)cc12	> 100 µM	> 100 µM	12.9 µM	91.6 µM	> 100 µM	> 100 µM	> 100 µM	> 100 µM	> 100 µM	> 100 µM	> 100 µM	> 100 µM	> 100 µM	> 100 µM	> 100 µM	> 100 µM	> 100 µM	> 100 µM	> 100 µM	> 100 µM
Cc1n(Cc2ccc3ccccc3n2)cc[n+]1Cc1ccc2ccccc2c1	0.518 µM	11 µM	0.322 µM	3.39 µM	0.302 µM	1.1 µM	1.34 µM	13.4 µM	0.61 µM	10.4 µM	0.506 µM	2.89 µM	0.522 µM	2.99 µM	1.79 µM	7.36 µM	0.819 µM	7.24 µM	1.05 µM	3.77 µM
CCC1=C(c2ccc(OC)cc2)CC[C@]2(CCNC2=O)[C@@H]1C		> 96.3 µM		> 95.6 µM		19.9 µM		> 100 µM		52.6 µM		79.1 µM		52.4 µM		> 100 µM		> 65.3 µM		60.5 µM
C=CC[PH+](c1ccccc1)c1ccccc1.C=CC[PH+](c1ccccc1)c1ccccc1.[Pt+2].[S-]c1ncccn1.[S-]c1ncccn1	13.5 µM	48.6 µM	8.25 µM	> 100 µM	5.24 µM	26.9 µM	26.3 µM	> 100 µM	2.17 µM	4.88 µM	11.6 µM	37.2 µM	47.4 µM	> 100 µM	39.5 µM	> 100 µM	19.1 µM	41.5 µM	2.18 µM	5.91 µM
CC(C)C/C(=N\NC(=O)c1ccncc1)c1cc(Cl)ccc1O	0.619 µM	> 52.5 µM	11.6 µM	> 100 µM	0.354 µM	14.4 µM	0.498 µM	> 42.6 µM	0.244 µM	11 µM	0.41 µM	6.62 µM	1.87 µM	31.9 µM	0.465 µM	64.8 µM	0.27 µM		0.178 µM	
CC/C(=C(/c1ccc(/C=C/C(=O)O)cc1)c1ccc2[nH]ncc2c1)c1ccc(F)cc1Cl	14.7 µM	44.6 µM	6.91 µM	26.3 µM	15.5 µM	35.3 µM	8.58 µM	25.1 µM	7.45 µM	20.8 µM	17.4 µM	43.2 µM	10.2 µM	27 µM	9.98 µM	26.5 µM	13.8 µM	29.8 µM	14.5 µM	39.6 µM
COC(=O)C1=Nc2ccc(F)cc2/C1=C/c1sc(=S)[nH]c1O	0.354 µM	> 26.3 µM	0.0301 µM	11.8 µM	0.311 µM	1.24 µM	0.254 µM	> 100 µM	0.0468 µM	16.7 µM	6.13 µM	> 100 µM	0.806 µM	41 µM	0.18 µM	18.7 µM	0.41 µM	12.1 µM	0.0943 µM	> 32.6 µM
Nc1n[nH]c2ccc([C@@H]3Nc4c(F)cc5[nH]ncc5c4[C@H]4C5CCC(C5)[C@@H]34)cc12 (stereo partly drawn)	0.544 µM	> 54.9 µM	0.0993 µM	7.25 µM	0.337 µM	1.67 µM	0.352 µM	> 100 µM	0.293 µM	6.22 µM	7.78 µM	> 79.3 µM	0.598 µM	> 44.3 µM	0.432 µM	38.5 µM	0.39 µM	22.2 µM	0.539 µM	23.9 µM
Cc1ccc(NC(=O)c2ccc(NC3=C(Cl)C(=O)N(Cc4ccccc4)C3=O)cc2)cc1Cl	3.87 µM	20.5 µM	23.9 µM	76.8 µM	13.5 µM	> 100 µM	12.9 µM	25.6 µM	3.08 µM	13.3 µM	13.3 µM	35.8 µM	12.5 µM	34.1 µM	12.2 µM	31.9 µM	2.36 µM	14.2 µM	3 µM	14 µM
Cn1c(CC(O)c2nc3ccccc3n2C)nc2ccccc21 (stereo not drawn)		> 57.9 µM		> 100 µM		> 35.8 µM		> 100 µM		> 34.9 µM		> 47.8 µM		> 58.5 µM		> 19.1 µM		> 100 µM		> 47.7 µM
CCc1ccc(C2=NN(c3ccc(S(C)(=O)=O)cc3)C(=O)CC2)cc1	7.34 µM	> 100 µM	1.31 µM	6.93 µM	1.05 µM	7.75 µM	0.913 µM	> 100 µM	0.942 µM	> 39.2 µM	1.68 µM	55.3 µM	1.24 µM	98.4 µM	2.68 µM	> 30.8 µM	3.96 µM	33.4 µM	2.93 µM	> 100 µM
Cc1ccc(O)cc1Nc1ccnc2cc(-c3ccccn3)ccc12	2.46 µM	7.51 µM	0.405 µM	3.43 µM	3.92 µM	7.34 µM	3.8 µM	8.39 µM	3.49 µM	6.96 µM	3.09 µM	6.25 µM	3.86 µM	8.03 µM	3.48 µM	8.59 µM	3.89 µM	7.51 µM	2.26 µM	5.71 µM
CN(C)CCNC(=O)c1cccc2cc3ccc4ccccc4c3nc12		0.818 µM		0.399 µM		0.25 µM		0.56 µM		1.05 µM		0.535 µM		0.406 µM		0.309 µM		0.252 µM		0.256 µM
CN(c1ccc(NC(=O)NCCN2CCOCC2)cc1)c1ccnc(Nc2ccc(CS(C)(=O)=O)cc2)n1	> 25 µM	> 25 µM	> 25 µM	> 25 µM	> 16.8 µM	> 25 µM	> 25 µM	> 25 µM	> 25 µM	> 25 µM	> 25 µM	> 25 µM	> 25 µM	> 25 µM	> 25 µM	> 25 µM	> 25 µM	> 25 µM	> 25 µM	> 25 µM
